For three compounds, Kd results are on record in PMC6222781, “Structural Optimization of Foldamer-Dendrimer Conjugates as Multivalent Agents against the Toxic Effects of Amyloid Beta Oligomers” (Molecules : A Journal of Synthetic Chemistry and Natural …, 2018).

Where two headings read alike, the source gives them in different places.

The test deals with T1, Aβ oligomers (Homo sapiens, UniProt P05067).
T1 construct: Ser^26 depsipeptide iso-Aβ (1–42) was used; made in house; host or cells: chemical peptide synthesis (no expression host)
T1 sequence (P05067 672-713 limits assumed): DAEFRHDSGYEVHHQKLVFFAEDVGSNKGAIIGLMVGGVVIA
The test is described as follows: Isothermal titration calorimetry (ITC) binding to Aβ oligomers. The following applies: PBS pH 7.4, 285 K, Aβ 100 µM in cell, ligand 250 µM in syringe, two independent site model. The protocol:
The binding affinities of 2b–2i to Aβ oligomers were tested in ITC experiments.
In this work, Ser^26 depsipeptide iso-Aβ (1–42) was used, which was synthesized and purified as described previously. The lyophilized iso-Aβ (1–42) was dissolved in MilliQ water to a concentration of 1 mg mL^−1, sonicated for 3 min and the pH was set to 7.0 to initiate an O to N acyl migration, whereby the native sequence can be readily formed. The sample was incubated at room temperature for 10 min. Then the pH was set to 11 and the sample was kept at room temperature for additional 2 h. After the incubation, the Aβ stock solution was aliquoted and stored at −20 °C until use. To obtain Aβ oligomers, the 1 mg mL^−1 aliquot was diluted to a final concentration of 50 μM with 26.67 mM PBS and the pH was set to 7.4 with 1 M HCl. The sample was incubated at 37 °C for 3 h.
Isothermal calorimetric titrations were performed with a Microcal VP-ITC microcalorimeter in pH 7.4 PBS buffer solution. In individual titrations, 10 µL portions of the ligand containing solution were repeatedly injected from the computer-controlled 300-µL microsyringe at intervals of 300 s into the Aβ oligomer solution prepared in the same buffer as the ligand. All measurements were carried out at 285 K. The Aβ concentration in the cell was 100 µM and the total ligand concentration was 250 µM in the syringe and the titration was stopped when the precipitation of the Aβ aggregates became excessive. Control experiments were performed by injecting the ligand into a cell containing buffer with no target, and the heats of dilution were subtracted from those measured in the presence of Aβ. The experimental data were fitted to the two independent site binding models by using a nonlinear least-squares procedure, with ΔHb, ΔHb’, Kd, Kd’ ([…]), n and n’ (number of binding sites for monomer), as adjustable parameters.
In general terms: In ITC the heat of successive injections is recorded.

The term Kd denotes the free concentration of one partner at which half of the binding sites on the other are occupied at equilibrium, for simple one-to-one binding. Consider `CC1(C)[C@H]2C[C@H](NC(=O)C[C@H](CCCNC(=N)N)NC(=O)[C@H]3CCCC[C@@H]3N)[C@@H](C(=O)N[C@H]3CCCC[C@@H]3C(=O)N[C@@H](CC(=O)O)CC(=O)N[C@H]3CCCC[C@@H]3C(=O)NCC(=O)NCC(=O)N[C@@H](CSC3CC(=O)N(CCC(=O)NCCCC[C@H](NC(=O)CCN4C(=O)CC(SC[C@H](NC(=O)CNC(=O)CNC(=O)[C@H]5CCCC[C@@H]5NC(=O)C[C@H](CC(=O)O)NC(=O)[C@H]5CCCC[C@@H]5NC(=O)[C@@H]5[C@@H](NC(=O)C[C@H](CCCNC(=N)N)NC(=O)[C@H]6CCCC[C@@H]6N)C[C@H]6C[C@@H]5C6(C)C)C(N)=O)C4=O)C(=O)NCCCC[C@H](NC(=O)[C@H](CCCCNC(=O)CCN4C(=O)CC(SC[C@H](NC(=O)CNC(=O)CNC(=O)[C@H]5CCCC[C@@H]5NC(=O)C[C@H](CC(=O)O)NC(=O)[C@H]5CCCC[C@@H]5NC(=O)[C@@H]5[C@@H](NC(=O)C[C@H](CCCNC(=N)N)NC(=O)[C@H]6CCCC[C@@H]6N)C[C@H]6C[C@@H]5C6(C)C)C(N)=O)C4=O)NC(=O)CCN4C(=O)CC(SC[C@H](NC(=O)CNC(=O)CNC(=O)[C@H]5CCCC[C@@H]5NC(=O)C[C@H](CC(=O)O)NC(=O)[C@H]5CCCC[C@@H]5NC(=O)[C@@H]5[C@@H](NC(=O)C[C@H](CCCNC(=N)N)NC(=O)[C@H]6CCCC[C@@H]6N)C[C@H]6C[C@@H]5C6(C)C)C(N)=O)C4=O)C(=O)N[C@@H](CCCCNC(=O)CCCC[C@@H]4SC[C@@H]5NC(=O)N[C@@H]54)C(N)=O)C3=O)C(N)=O)[C@@H]1C2` (stereo partly drawn) [Compound 2g], for which the Kd turned out to be 34.1 ± 10 nM (KD ITC, first binding stage, Table 1) and 652 ± 158 nM (KD ITC, second binding stage, Table 1).
As for `N=C(N)NCCC[C@@H](CC(=O)N[C@H]1CCCC[C@@H]1C(=O)N[C@H]1CCCC[C@@H]1C(=O)N[C@@H](CC(=O)O)CC(=O)N[C@H]1CCCC[C@@H]1C(=O)NCC(=O)NCC(=O)N[C@@H](CSC1CC(=O)N(CCC(=O)NCCCCC(=O)NCCN(CCNC(=O)CCCCNC(=O)CCN2C(=O)CC(SC[C@H](NC(=O)CNC(=O)CNC(=O)[C@H]3CCCC[C@@H]3NC(=O)C[C@H](CC(=O)O)NC(=O)[C@H]3CCCC[C@@H]3NC(=O)[C@H]3CCCC[C@@H]3NC(=O)C[C@H](CCCNC(=N)N)NC(=O)[C@H]3CCCC[C@@H]3N)C(N)=O)C2=O)CCNC(=O)CCCCNC(=O)CCN2C(=O)CC(SC[C@H](NC(=O)CNC(=O)CNC(=O)[C@H]3CCCC[C@@H]3NC(=O)C[C@H](CC(=O)O)NC(=O)[C@H]3CCCC[C@@H]3NC(=O)[C@H]3CCCC[C@@H]3NC(=O)C[C@H](CCCNC(=N)N)NC(=O)[C@H]3CCCC[C@@H]3N)C(N)=O)C2=O)C1=O)C(N)=O)NC(=O)[C@H]1CCCC[C@@H]1N` (stereo partly drawn) [Compound 4], the Kd (Table 2, first binding stage, read-out: KD, first binding stage) came out at 18.5 ± 13.9 nM and the Kd (Table 2, second binding stage, read-out: KD, second binding stage) stood at 155 ± 131 nM.
For `N=C(N)NCCC[C@@H](CC(=O)N[C@H]1CCCC[C@@H]1C(=O)N[C@H]1CCCC[C@@H]1C(=O)N[C@@H](CC(=O)O)CC(=O)N[C@H]1CCCC[C@@H]1C(=O)NCC(=O)NCC(=O)N[C@@H](CSC1CC(=O)N(CCC(=O)NCCNC(=O)CCN(CCC(=O)NCCNC(=O)CCN2C(=O)CC(SC[C@H](NC(=O)CNC(=O)CNC(=O)[C@H]3CCCC[C@@H]3NC(=O)C[C@H](CC(=O)O)NC(=O)[C@H]3CCCC[C@@H]3NC(=O)[C@H]3CCCC[C@@H]3NC(=O)C[C@H](CCCNC(=N)N)NC(=O)[C@H]3CCCC[C@@H]3N)C(N)=O)C2=O)CCN(CCC(=O)NCCNC(=O)CCN2C(=O)CC(SC[C@H](NC(=O)CNC(=O)CNC(=O)[C@H]3CCCC[C@@H]3NC(=O)C[C@H](CC(=O)O)NC(=O)[C@H]3CCCC[C@@H]3NC(=O)[C@H]3CCCC[C@@H]3NC(=O)C[C@H](CCCNC(=N)N)NC(=O)[C@H]3CCCC[C@@H]3N)C(N)=O)C2=O)CCC(=O)NCCNC(=O)CCN2C(=O)CC(SC[C@H](NC(=O)CNC(=O)CNC(=O)[C@H]3CCCC[C@@H]3NC(=O)C[C@H](CC(=O)O)NC(=O)[C@H]3CCCC[C@@H]3NC(=O)[C@H]3CCCC[C@@H]3NC(=O)C[C@H](CCCNC(=N)N)NC(=O)[C@H]3CCCC[C@@H]3N)C(N)=O)C2=O)C1=O)C(N)=O)NC(=O)[C@H]1CCCC[C@@H]1N` (stereo partly drawn) [Compound 5], the Kd was 6.9 ± 1.4 nM (KD, first binding stage, Table 2) and 281 ± 38.7 nM (KD, second binding stage, Table 2).
